Results: patent US10913757B2, “Hydroxycinnamic derivatives, methods and uses thereof” (UNIVERSIDADE DO PORTO, priority 2016, dated 2021)

Tested on: rat liver mitochondria (RLM) membranes
Test: RLM lipid peroxidation, TBARS assay (FeSO4/H2O2/ascorbate)
Format: biochemical
Conditions: 5 μM pre-incubation, FIG. 4A
Protocol: In an embodiment, and as an example, AntiOxCINs antioxidant performance, on the protection of lipid peroxidation of RLM membranes was determined. Two different oxidative stressor agents, FeSO4/H2O2/ascorbate and ADP/FeSO4, and two end-points, TBARS production and oxygen-consumption, respectively, have been used. MitoQ was used as reference (FIGS. 4 and 5).
In an embodiment, the evaluation of AntiOxCINs functional mitochondrial toxicity profile was performed in rat liver mitochondria (RLM). RLM were prepared by tissue homogenization followed by differential centrifugations in ice-cold buffer containing 250 mM sucrose, 10 mM HEPES (pH 7.4), 1 mM EGTA, and 0.1% fat-free bovine serum albumin. […] The protein concentration was determined by the biuret assay using BSA as a standard.
In an embodiment, the effect of AntiOxCINs on RLM lipid peroxidation was measured by thiobarbituric acid reactive species (TBARS) assay as follows: RLM (2 mg protein/ml) were incubated in 0.8 mL medium containing 100 mM KCl, 10 mM Tris-HCl and pH 7.6, at 37° C., supplemented with 5 mM glutamate/2.5 mM malate as substrate. […] The fluorescence of aliquots (250 μL) of the organic layer was analyzed in a plate reader (λEx=515 nm; λEm=553 nm) for TBARS. […] Data are means±SEM of three independent experiments and are expressed as % of control (control=100%).

With CS(=O)(=O)[O-].O=C(/C=C/c1ccc(O)c(O)c1)NCCCCCC[P+](c1ccccc1)(c1ccccc1)c1ccccc1 [AntiOxCIN2, (E)-(6-(3-(3,4-dihydroxyphenyl)prop-2-enamido)hexyl)triphenylphosphonium methanesulfonate] the “prevention of mitochondria lipid peroxidation (TBARS levels)” value was “most effective”.
